Reference: patent US20260256792A1, “TREATMENT OF CHRONIC SPONTANEOUS URTICARIA BY ADMINISTERING (R)-2-[3-[4-AMINO-3-(2-FLUORO-4-PHENOXY-PHENYL)PYRAZOLO[3,4-D]PYRIMIDIN-1-YL]PIPERIDINE-1-CARBONYL]-4-METHYL-4-[4-(OXETAN-3-YL)PIPERAZIN-1-YL]PENT-2-ENENITRILE” (priority 2023, published 2026)

Tested on: moderate-to-severe chronic spontaneous urticaria (CSU)
Assay: Phase 2 CSU study: itch severity score over 7 days (ISS7)
Format: in vivo, human
From the text: The study comprises a 12 week, randomized, double-blind, placebo-controlled, multi-center, dose-ranging efficacy and safety phase, followed by a 40 week open label extension (OLE) phase (see FIG. 1). The study consists of three phases and an optional OLE phase. […] Clinically, CSU is characterized by the spontaneous and recurrent appearance of pruritic hives. The proposed primary endpoints were the UAS7 at Week 12 in EU and EU reference countries and the ISS7 in the US. Regardless of where a participant was from, all assessments were the same. The UAS7 score is a composite score containing both the HSS7 and the ISS7. This allowed a global assessment of the two key components of urticaria: hives and itch. […] The UAS is a validated PRO measure. […] The daily UAS scores range from 0 to 6 point/day. […] Patients were to complete the UAS using the e-diary. […] The following secondary endpoints were to be analyzed using the same approach as for the primary endpoint: • Change from baseline in UAS7 at Week 4 • Change from baseline in UAS7 at Week 12 (for US and US reference countries) • Change from baseline in ISS7 at Week 12 (except US and US reference countries) • Change from baseline in HSS7 at Week 12

[1] = Week 4, 400 mg TID, Prior Omalizumab Use
[2] = Week 5, 400 mg BID, Omalizumab-Naïve
[3] = Week 5, 400 mg BID, Prior Omalizumab Use
[4] = Week 5, 400 mg QPM, Omalizumab-Naïve
[5] = Week 5, 400 mg QPM, Prior Omalizumab Use
[6] = Week 5, 400 mg TID, Omalizumab-Naïve
[7] = Week 5, 400 mg TID, Prior Omalizumab Use
[8] = Week 6, 400 mg BID, Omalizumab-Naïve
[9] = Week 6, 400 mg BID, Prior Omalizumab Use
[10] = Week 6, 400 mg QPM, Omalizumab-Naïve
[11] = Week 6, 400 mg QPM, Prior Omalizumab Use
[12] = Week 6, 400 mg TID, Omalizumab-Naïve
[13] = Week 6, 400 mg TID, Prior Omalizumab Use
[14] = Week 7, 400 mg BID, Omalizumab-Naïve
[15] = Week 7, 400 mg BID, Prior Omalizumab Use
[16] = Week 7, 400 mg QPM, Omalizumab-Naïve
[17] = Week 7, 400 mg QPM, Prior Omalizumab Use

CC(C)(C=C(C#N)C(=O)N1CCC[C@@H](n2nc(-c3ccc(Oc4ccccc4)cc3F)c3c(N)ncnc32)C1)N1CCN(C2COC2)CC1 [rilzabrutinib, (R)-2-[3-[4-amino-3-(2-fluoro-4-phenoxy-phenyl)pyrazolo[3,4-d]pyrimidin-1-yl]piperidine-1-carbonyl]-4-methyl-4-[4-(oxetan-3-yl)piperazin-1-yl]pent-2-enenitrile]
ISS7 Mean (SD) [1]: 6.17 (6.41)
ISS7 Median [1]: 5.42
ISS7 Percent change from baseline Mean (SD) [1]: −61.65 (32.63) %
ISS7 Percent change from baseline Median [1]: −62.50%
ISS7 Change from baseline Mean (SD) [2]: −6.55 (6.17)
ISS7 Change from baseline Median [2]: −6.42
ISS7 Mean (SD) [2]: 8.88 (6.81)
ISS7 Median [2]: 8.50
ISS7 Percent change from baseline Mean (SD) [2]: −43.73 (41.21) %
ISS7 Percent change from baseline Median [2]: −39.85%
ISS7 Change from baseline Median [3]: −14.50
ISS7 Mean (SD) [3]: 5.50 (8.54)
ISS7 Median [3]: 2.00
ISS7 Percent change from baseline Mean (SD) [3]: −68.33 (47.26) %
ISS7 Percent change from baseline Median [3]: −86.67%
ISS7 Change from baseline Mean (SD) [4]: −5.53 (4.98)
ISS7 Change from baseline Median [4]: −4.10
ISS7 Mean (SD) [4]: 11.00 (4.68)
ISS7 Percent change from baseline Mean (SD) [4]: −31.93 (26.18) %
ISS7 Percent change from baseline Median [4]: −30.00%
ISS7 Change from baseline Mean (SD) [5]: −10.00 (NC)
ISS7 Change from baseline Median [5]: −10.00
ISS7 Mean (SD) [5]: 11.00 (NC)
ISS7 Percent change from baseline Mean (SD) [5]: −47.62 (NC) %
ISS7 Percent change from baseline Median [5]: −47.62%
ISS7 Change from baseline Mean (SD) [6]: −9.18 (6.46)
ISS7 Change from baseline Median [6]: −9.00
ISS7 Mean (SD) [6]: 6.92 (5.87)
ISS7 Median [6]: 7.00
ISS7 Percent change from baseline Mean (SD) [6]: −55.68 (34.88) %
ISS7 Percent change from baseline Median [6]: −56.25%
ISS7 Mean (SD) [7]: 5.50 (6.53)
ISS7 Median [7]: 3.00
ISS7 Percent change from baseline Mean (SD) [7]: −66.60 (31.51) %
ISS7 Percent change from baseline Median [7]: −72.43%
ISS7 Change from baseline Mean (SD) [8]: −6.58 (5.90)
ISS7 Change from baseline Median [8]: −5.75
ISS7 Mean (SD) [8]: 8.85 (6.40)
ISS7 Percent change from baseline Mean (SD) [8]: −42.90 (39.02) %
ISS7 Percent change from baseline Median [8]: −33.40%
ISS7 Change from baseline Mean (SD) [9]: −10.13 (9.42)
ISS7 Change from baseline Median [9]: −14.00
ISS7 Mean (SD) [9]: 7.07 (8.32)
ISS7 Median [9]: 2.33
ISS7 Percent change from baseline Mean (SD) [9]: −56.44 (51.68) %
ISS7 Change from baseline Mean (SD) [10]: −6.59 (5.45)
ISS7 Change from baseline Median [10]: −5.00
ISS7 Mean (SD) [10]: 10.27 (5.26)
ISS7 Percent change from baseline Mean (SD) [10]: −38.20 (29.52) %
ISS7 Percent change from baseline Median [10]: −31.67%
ISS7 Change from baseline Mean (SD) [11]: −12.00 (NC)
ISS7 Change from baseline Median [11]: −12.00
ISS7 Mean (SD) [11]: 9.00 (NC)
ISS7 Median [11]: 9.00
ISS7 Percent change from baseline Mean (SD) [11]: −57.14 (NC) %
ISS7 Percent change from baseline Median [11]: −57.14%
ISS7 Change from baseline Mean (SD) [12]: −8.71 (6.32)
ISS7 Change from baseline Median [12]: −7.50
ISS7 Mean (SD) [12]: 7.32 (6.05)
ISS7 Median [12]: 7.00
ISS7 Percent change from baseline Mean (SD) [12]: −53.59 (35.59) %
ISS7 Percent change from baseline Median [12]: −50.00%
ISS7 Change from baseline Mean (SD) [13]: −12.83 (7.49)
ISS7 Change from baseline Median [13]: −14.50
ISS7 Mean (SD) [13]: 4.17 (6.88)
ISS7 Median [13]: 2.00
ISS7 Percent change from baseline Mean (SD) [13]: −75.50 (33.00) %
ISS7 Percent change from baseline Median [13]: −88.10%
ISS7 Change from baseline Mean (SD) [14]: −7.28 (5.95)
ISS7 Change from baseline Median [14]: −8.08
ISS7 Mean (SD) [14]: 8.21 (6.16)
ISS7 Median [14]: 7.00
ISS7 Percent change from baseline Mean (SD) [14]: −46.93 (37.51) %
ISS7 Percent change from baseline Median [14]: −56.35%
ISS7 Change from baseline Mean (SD) [15]: −10.40 (9.91)
ISS7 Change from baseline Median [15]: −13.00
ISS7 Mean (SD) [15]: 6.80 (8.56)
ISS7 Median [15]: 2.00
ISS7 Percent change from baseline Mean (SD) [15]: −57.33 (52.62) %
ISS7 Percent change from baseline Median [15]: −86.67%
ISS7 Change from baseline Mean (SD) [16]: −6.11 (5.15)
ISS7 Change from baseline Median [16]: −5.20
ISS7 Mean (SD) [16]: 10.68 (5.34)
ISS7 Percent change from baseline Mean (SD) [16]: −36.22 (29.09) %
ISS7 Percent change from baseline Median [16]: −37.78%
ISS7 Change from baseline Mean (SD) [17]: −13.00 (NC)
ISS7 Change from baseline Median [17]: −13.00
ISS7 Mean (SD) [17]: 8.00 (NC)
ISS7 Median [17]: 8.00
ISS7 Percent change from baseline Mean (SD) [17]: −61.90 (NC) %
ISS7 Percent change from baseline Median [17]: −61.90%
